Measured values: patent US20160031796A1, “ANTIMUSCARINIC COMPOUND HAVING A LOW CONTENT OF IMPURITIES” (Dipharma Francis S.r.l., priority 2014, published 2016)
Structures can show the parent of a compound that is named as a salt.

Tests used:
[1] = stability studies of Fesoterodine fumarate samples under various temperature and humidity conditions, HPLC analysis; assay type: physicochemical
Excerpt: Various samples of Fesoterodine fumarate salt of formula (I) have been taken from a batch of product, obtained using the process of the present invention, having a HPLC purity exceeding 99.8% and a content of the impurities of formulas (II), (III), (IV), (V), (VI) or (VII) of less than 0.10%, calculated as HPLC Area %, and completely free of impurities of formula (VIII) and (IX). Some of the samples taken were also micronized to reduce the particle size, both the samples directly taken from the sample batch and the micronized samples have been subjected to stability studies under various temperature and humidity conditions for up to 90 days.
An example of the conditions used in the stability studies were 40° C. with 75% relative humidity and 25° C. with 60% relative humidity.

[2] = Fesoterodine fumarate obtained as disclosed in EP 2 251 318 (prior art); cited from earlier work

formation of impurities of formula (VIII) and/or (IX) ([1]; HPLC analysis, any of the conditions used, up to 90 days, e.g. 40° C./75% RH and 25° C./60% RH): has not shown the formation
increase in the content of impurities of formula (VI), (VII), (VIII) or (IX) over time ([1]; after 90 days under various temperature and humidity conditions): did not show any increase
stability of micronized sample on storage ([1]; micronized, maintained for 3 months at 4° C.): completely unaltered
impurities content of formula (VI) and/or (VII) ([1]; stability studies up to 90 days, e.g. 40° C. with 75% relative humidity and 25° C. with 60% relative humidity, batch samples and micronized samples): less than 0.10 % (HPLC Area %)
Structure (SMILES): CC(C)C(=O)Oc1ccc(CO)cc1[C@H](CCN(C(C)C)C(C)C)c1ccccc1 [Fesoterodine fumarate, (R)-2-(3-diisopropylamino-1-phenylpropyl)-4-(hydroxymethyl)phenol isobutyrate]
impurity of formula (VI) generated over time [2]: > 1%
